Assay results published in US20230035606A1, “AN ACCURATE AND COMPREHENSIVE CARDIAC TROPONIN I ASSAY ENABLED BY NANOTECHNOLOGY AND PROTEOMICS” (Wisconsin Alumni Research Foundation, priority 2019, published 2023).
Side chains are listed from the residue outwards. Ends that are not written are not given here. BAPTES = N-(3-(triethoxysilyl)propyl)buta-2,3-dienamide; Fe3O4 nanoparticle = not defined here

B1: Fe3O4-BAPTES-Peptide NPs (NP-Pep): high affinity cTnI-binding peptide HWQIAYNEHQWQC on BAPTES-silanized Fe3O4 nanoparticles (peptide)
peptide: HWQIAYNEHQWQC([BAPTES-Fe3O4 nanoparticle])
modifications: not fully specified; reading uncertain
notes: Synthetic peptide (GenScript) found by phage display and in silico evolution (literature); Many copies on each nanoparticle (about 1.5 peptide/nm^2 in the text); In the assay it stood on the particle, not free; also called NP-Peptide; Fe3O4-Peptide NPs

Key:
cTnI = cTnI (Homo sapiens, UniProt P19429); conditions: peptide evolved by phage display and in silico evolution; targets cTnI residues 114-144; read-out: binding affinity (Kd); cited from earlier work
cTnI, sequence (P19429 whole entry, the tested form may be a part): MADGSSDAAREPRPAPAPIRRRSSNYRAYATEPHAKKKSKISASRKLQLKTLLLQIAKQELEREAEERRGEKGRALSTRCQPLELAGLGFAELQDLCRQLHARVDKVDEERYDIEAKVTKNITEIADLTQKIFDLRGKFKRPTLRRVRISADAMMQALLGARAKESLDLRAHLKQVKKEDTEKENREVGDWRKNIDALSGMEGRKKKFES

[1] = target: T1, human serum albumin (HSA) (human, UniProt P02768 25-609); assay: nanoparticle pull-down from human serum (10 mg) spiked with cTnI, SDS-PAGE and top-down LC/MS
T1 construct: mature; also called C-HSA; C-C-HSA
T1 sequence (P02768 25-609): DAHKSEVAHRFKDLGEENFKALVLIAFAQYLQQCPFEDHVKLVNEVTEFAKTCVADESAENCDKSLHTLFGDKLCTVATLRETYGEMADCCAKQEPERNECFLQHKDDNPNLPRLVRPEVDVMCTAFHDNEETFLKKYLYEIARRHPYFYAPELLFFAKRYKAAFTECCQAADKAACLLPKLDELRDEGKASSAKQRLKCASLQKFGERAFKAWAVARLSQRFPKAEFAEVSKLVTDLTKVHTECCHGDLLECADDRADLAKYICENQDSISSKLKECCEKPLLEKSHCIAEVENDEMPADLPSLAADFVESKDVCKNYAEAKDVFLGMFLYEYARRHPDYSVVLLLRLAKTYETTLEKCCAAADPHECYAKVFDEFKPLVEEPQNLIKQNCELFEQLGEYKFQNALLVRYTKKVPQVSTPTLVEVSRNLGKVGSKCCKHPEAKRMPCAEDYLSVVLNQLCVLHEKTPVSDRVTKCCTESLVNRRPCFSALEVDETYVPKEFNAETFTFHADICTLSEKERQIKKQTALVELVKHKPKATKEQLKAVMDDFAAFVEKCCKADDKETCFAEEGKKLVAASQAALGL
Experimental: To this end, cTnI enrichment was performed from human serum spiked-in with the cTnI extracted from the same donor, DCM, and post-mortem heart samples as in FIGS. 4-6. The endogenous cTnI obtained from the different human heart samples were used as the reference cTnI sources and served to mimic cTnI found in the blood.
Comparison of the cTnI enrichment performance of the NP-Pep platform against the agarose-mAb or agarose-Pep platform from human serum spiked with cTnI. The enrichment workflow was performed in a cold room held at 4° C. to minimize possible artifactual protein modifications, such as oxidation. NP-Control (NP-BAPTES),NP-Pep (Fe₃O₄-BAPTES-Peptide), Agarose-Control beads (no coupling), Agarose-Pep beads, and Agarose-mAb beads were incubated with in a protein loading mixture containing human male AB serum (10 mg) and sarcomeric tissue extract obtained from healthy donor heart tissue, diseased heart tissue of DCM, and post-mortem heart tissue containing 306 ng cTnI, 482 ng cTnI, and 465 ng cTnI in the protein extract, respectively. cTnI values were determined by ELISA quantification as previously described. The loading mixture (L), flow through (F), and elution mixture (E) were collected, desalted using a 10 kDa MWCO, and buffer exchanged prior to SDS-PAGE gel analysis or LC-MS analysis as described in the tissue enrichment protocol.

| Molecule | Kd (cTnI) [pM] | binding result [1] |
| --- | --- | --- |
| HWQIAYNEHQWQ | 270 | – |
| B1 | – | no binding |
